Data on one molecule can be found in ChEMBL document CHEMBL1146719, “Lysyl 4-aminobenzoic acid derivatives as potent small molecule mimetics of plasminogen kringle 5” (Bioorg Med Chem Lett, 2004).

The species named for this assay is Homo sapiens. The assay is described as follows: Inhibition of VEGF-stimulated migration of human microvascular endothelial cells. The format is functional, cell-based. As to conditions: Endothelial cell.

Peptide text beside a SMILES is read from it.

`CC(=O)N[C@@H](CCCCN)C(=O)N[C@@H](CC(C)C)C(=O)N[C@@H](Cc1ccc(O)cc1)C(=O)N[C@@H](CC(=O)O)C(=O)O` (Ac-KLYD-OH): inhibition was half-maximal at 1.2 nM (IC50).
